We go through 22 compounds from patent US8263606B2 (Xenon Pharmaceuticals Inc., priority 2008, dated 2012).

Broadly, the IC50 is the point on the concentration scale where inhibition reaches its midpoint. In general, inhibition refers to the drop in the measured response relative to a control, in per cent.

A value given as a limit tells only on which side of the number the result lay.

One data set has as its system sodium channel. The experiment in a line: Guanidine influx assay (14C-guanidine radiotracer flux, in vitro). The data set is classed as cell-based, human or rat. The note with it: guanidine influx assay using a known cell line that expresses a sodium channel; activity level class. From the text: This example describes an in vitro assay for testing and profiling test agents against human or rat sodium channels stably expressed in cells of either an endogenous or recombinant origin. The assay is also useful for determining the IC50 of a sodium channel blocking compound. The assay is based on the guanidine flux assay described by Reddy, N. L., et al., J. Med. Chem. (1998), 41(17):3298-302.
The guanidine influx assay is a radiotracer flux assay used to determine ion flux activity of sodium channels in a high-throughput microplate-based format. The assay uses ^14C-guanidine hydrochloride in combination with various known sodium channel modulators, to assay the potency of test agents. Potency is determined by an IC50 calculation. Selectivity is determined by comparing potency of the compound for the channel of interest to its potency against other sodium channels (also called ‘selectivity profiling’).
Each of the test agents is assayed against cells that express the channels of interest. Voltage gated sodium channels are either TTX sensitive or insensitive. This property is useful when evaluating the activities of a channel of interest when it resides in a mixed population with other sodium channels. The following Table 1 summarizes cell lines useful in screening for a certain channel activity in the presence or absence of TTX.
It is also possible to employ recombinant cells expressing these sodium channels. Cloning and propagation of recombinant cells are known to those skilled in the art (see, for example, Klugbauer, N, et al., EMBO J. (1995), 14(6):1084-90; and Lossin, C., et al., Neuron (2002), 34, pp. 877-884).
Cells expressing the channel of interest are grown according to the supplier or in the case of a recombinant cell in the presence of selective growth media such as G418 (Gibco/Invitrogen). The cells are disassociated from the culture dishes with an enzymatic solution (Ix) Trypsin/EDTA (Gibco/Invitrogen) and analyzed for density and viability using haemocytometer (Neubauer). Disassociated cells are washed and resuspended in their culture media then plated into Scintiplates (Beckman Coulter Inc.) (approximately 100,000 cells/well) and incubated at 37° C./5% CO2 for 20-24 hours. After an extensive wash with Low sodium HEPES-buffered saline solution (LNHBSS) (150 mM Choline Chloride, […] (Sigma), 1 mM Calcium Chloride, 5 mM Potassium Chloride, 1 mM Magnesium Chloride, 10 mM Glucose) agents diluted with LNHBSS are added to each well. (Varying concentrations of test agent may be used). The activation/radiolabel mixture contains aconitine (Sigma) to increase the percentage of time that the sodium channels are open, and ^14C-guanidine hydrochloride (ARC) to measure flux through the voltage-gated sodium channels.
After loading the cells with test agent and activation/radiolabel mixture, the Scintiplates are incubated at ambient temperature. Following the incubation, the Scintplates are extensively washed with LNHBSS supplemented with guanidine (Sigma). The Scintiplates are dried and then counted using a Wallac MicroBeta TriLux (Perkin-Elmer Life Sciences). The ability of the test agent to block sodium channel activity is determined by comparing the amount of ^14C-guanidine present inside the cells expressing the different sodium channels.
The IC50 value of a test agent for a specific sodium channel may be determined using the above general method. […] Typically the mid-point concentration of test agent is set at 1 μM, and sequential concentrations of half dilutions greater or smaller are applied (e.g. 0.5 μM; 5 μM and 0.25 μM; 10 μM and 0.125 μM; 20 μM etc.). The IC50 curve is calculated using the 4 Parameter Logistic Model or Sigmoidal Dose-Response Model formula (fit=(A+((B−A)/(1+((C/x)^D)))).
The fold selectivity, factor of selectivity or multiple of selectivity, is calculated by dividing the IC50 value of the test sodium channel by the reference sodium channel, for example, Nav1.5. […]

For a further data set, the target named is CYP3A4 (Homo sapiens, UniProt P08684). The experiment in a line: Cytochrome P450 (CYP450) Inhibition Assay, CYP3A4 (Vivid fluorescence, BOMCC substrate). The note with it: human, P450 Baculosomes (recombinant CYP3A4), probe BOMCC (Vivid substrate).
CYP3A4, sequence (P08684 whole entry): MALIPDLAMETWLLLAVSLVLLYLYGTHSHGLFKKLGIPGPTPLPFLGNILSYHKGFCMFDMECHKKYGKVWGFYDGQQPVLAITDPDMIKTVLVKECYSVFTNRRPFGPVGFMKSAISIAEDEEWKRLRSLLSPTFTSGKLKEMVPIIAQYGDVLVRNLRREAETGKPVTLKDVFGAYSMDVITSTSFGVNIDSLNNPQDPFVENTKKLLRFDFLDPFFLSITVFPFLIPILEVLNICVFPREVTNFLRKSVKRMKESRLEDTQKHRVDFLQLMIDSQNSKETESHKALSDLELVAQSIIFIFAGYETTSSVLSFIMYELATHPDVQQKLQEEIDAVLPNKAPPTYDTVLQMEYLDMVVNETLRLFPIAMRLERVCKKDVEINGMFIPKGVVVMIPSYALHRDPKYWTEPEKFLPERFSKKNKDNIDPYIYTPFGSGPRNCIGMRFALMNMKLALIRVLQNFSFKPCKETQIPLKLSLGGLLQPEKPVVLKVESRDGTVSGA

Regarding `Cn1c(CN2C(=O)C3(COc4cc5c(cc43)CCO5)c3ccccc32)cnc1Cl` (centres unmarked) [Example 4.2, 1′-[(2-chloro-1-methyl-1H-imidazol-5-yl)methyl]-5,6-dihydrospiro[benzo[1,2-b:5,4-b′]difuran-3,3′-indol]-2′(1′H)-one], the IC50 in the data set on sodium channel lay in the range of 0.001 to 0.1 µM. The inhibition at 10 µM at CYP3A4 is more than 50%.

For the compound `CC(C)CCN1C(=O)C2(COc3cc4c(cc32)CCO4)c2ccccc21` (centres unmarked) [Example 4.4, 1′-(3-methylbutyl)-5,6-dihydrospiro[benzo[1,2-b:5,4-b′]difuran-3,3′-indol]-2′(1′H)-one], in the data set with sodium channel, the IC50 lay in the range of 0.001 to 0.1 µM. The inhibition at 10 µM at CYP3A4 was more than 50%.

Turning to `O=C1N(C[C@@H]2CCCO2)c2ccccc2C12COc1cc3c(cc12)CCO3` (stereo partly drawn) [Example 4.5, 1′-[(2S)-tetrahydrofuran-2-ylmethyl]-5,6-dihydrospiro[benzo[1,2-b:5,4-b′]difuran-3,3′-indol]-2′(1′H)-one], in the data set with sodium channel, the IC50 is 0.001 to 0.1 µM. For the same compound, the inhibition at 10 µM on CYP3A4 is less than 50%.

Regarding `COC(=O)c1ccc(CN2C(=O)C3(COc4cc5c(cc43)CCO5)c3ccccc32)o1` (centres unmarked) [Example 4.7, methyl 5-[(2′-oxo-5,6-dihydrospiro[benzo[1,2-b:5,4-b′]difuran-3,3′-indol]-1′(2′H)-yl)methyl]furan-2-carboxylate], the IC50 in the data set with sodium channel fell in the range of 0.001 to 0.1 µM. Further, the inhibition at 10 µM on CYP3A4 was more than 50%.

Regarding `Cn1cc(CN2C(=O)C3(COc4cc5c(cc43)CCO5)c3ccccc32)c(C(F)(F)F)n1` (centres unmarked) [Example 4.9, 1′-{[1-methyl-3-(trifluoromethyl)-1H-pyrazol-4-yl]methyl}-5,6-dihydrospiro[benzo[1,2-b:5,4-b′]difuran-3,3′-indol]-2′(1′H)-one], the IC50 with sodium channel lay within 0.1 to 1 µM. The inhibition at 10 µM at CYP3A4 was more than 50%.

As for `COC(=O)c1coc(CN2C(=O)C3(COc4cc5c(cc43)CCO5)c3ccccc32)n1` (centres unmarked) [Example 4.11, methyl 2-[(2′-oxo-5,6-dihydrospiro[benzo[1,2-b:5,4-b′]difuran-3,3′-indol]-1′(2′H)-yl)methyl]-1,3-oxazole-4-carboxylate], the IC50 in the data set with sodium channel is 0.001 to 0.1 µM. The inhibition at 10 µM on CYP3A4 is less than 50%.

Consider `O=C1N(Cc2ccccc2F)c2ccccc2C12COc1cc3c(cc12)CCO3` (centres unmarked) [Example 4.12, 1′-(2-fluorobenzyl)-5,6-dihydrospiro[benzo[1,2-b:5,4-b′]difuran-3,3′-indol]-2′(1′H)-one], for which the IC50 in the data set with sodium channel lay within 0.001 to 0.1 µM. In addition, the inhibition at 10 µM on CYP3A4 is less than 50%.

As to `O=C1N(Cc2ccc(F)cc2)c2ccccc2C12COc1cc3c(cc12)CCO3` (centres unmarked) [Example 4.13, 1′-(4-fluorobenzyl)-5,6-dihydrospiro[benzo[1,2-b:5,4-b′]difuran-3,3′-indol]-2′(1′H)-one], in the data set on sodium channel, the IC50 was in the range of 0.001 to 0.1 µM. The inhibition at 10 µM at CYP3A4 is more than 50%.

On to `O=C1N(Cc2ccccc2)c2ccccc2C12COc1cc3c(cc12)CCO3` (centres unmarked) [Example 4.14, 1′-benzyl-5,6-dihydrospiro[benzo[1,2-b:5,4-b′]difuran-3,3′-indol]-2′(1′H)-one], for which, in the data set with sodium channel, the half-inhibitory concentration (IC50) was in the range of 0.001 to 0.1 µM. For the same compound, the inhibition at 10 µM at CYP3A4 was more than 50%.

In the case of `O=C1N(Cc2ccc(-c3ccccc3)cc2)c2ccccc2C12COc1cc3c(cc12)CCO3` (centres unmarked) [Example 4.15, 1′-(biphenyl-4-ylmethyl)-5,6-dihydrospiro[benzo[1,2-b:5,4-b′]difuran-3,3′-indol]-2′(1′H)-one], the half-maximal inhibitory concentration (IC50) in the data set on sodium channel was in the range of 0.001 to 0.1 µM. Also, the inhibition at 10 µM on CYP3A4 is less than 50%.

Take `O=C1N(Cc2cc(Br)no2)c2ccccc2C12COc1cc3c(cc12)CCO3` (centres unmarked) [Example 4.17, 1-[(3-bromoisoxazol-5-yl)methyl]-5,6-dihydrospiro[benzo[1,2-b:5,4-b′]difuran-3,3′-indol]-2′(1′H)-one]: in the data set on sodium channel, the IC50 was in the range of 0.001 to 0.1 µM. For the same compound, the inhibition at 10 µM on CYP3A4 is more than 50%.

As to `O=C1N(Cc2ccc(Br)o2)c2ccccc2C12COc1cc3c(cc12)CCO3` (centres unmarked) [Example 4.18, 1′-[(5-bromofuran-2-yl)methyl]-5,6-dihydrospiro[benzo[1,2-b:5,4-b′]difuran-3,3′-indol]-2′(1′H)-one], the IC50 in the data set on sodium channel lay in the range of 0.001 to 0.1 µM. The inhibition at 10 µM at CYP3A4 was more than 50%.

`CCn1cncc1CN1C(=O)C2(COc3cc4c(cc32)CCO4)c2ccccc21` (centres unmarked) [Example 4.21, 1′-[(1-ethyl-1H-imidazol-5-yl)methyl]-5,6-dihydrospiro[benzo[1,2-b:5,4-b′]difuran-3,3′-indol]-2′(1′H)-one]: the IC50 in the data set on sodium channel lay in the range of 0.1 to 1 µM. Moreover, the inhibition at 10 µM on CYP3A4 is more than 50%.

For the compound `COc1cc2c(cc1C)C1(CO2)C(=O)N(Cc2ccccn2)c2ccccc21` (centres unmarked) [Example 4.62, 6-methoxy-5-methyl-1′-(pyridin-2-ylmethyl)spiro[1-benzofuran-3,3′-indol]-2′(1′H)-one], the IC50 in the data set on sodium channel was 1 to 10 µM. For the same compound, the inhibition at 10 µM at CYP3A4 is more than 50%.

On to `O=C1N(Cc2ccc(C(F)(F)F)o2)c2ccccc2C12CCOc1cc3c(cc12)CCO3` (centres unmarked) [Example 4.70, 1-{[5-(trifluoromethyl)furan-2-yl]methyl}-2,3,6,7-tetrahydrospiro[furo[3,2-g]chromene-5,3′-indol]-2′(1′H)-one], for which the IC50 in the data set with sodium channel lay in the range of 1 to 10 µM. In addition, the inhibition at 10 µM at CYP3A4 is more than 50%.

With `CC(C)(C)OC(=O)NC(CCN1C(=O)C2(COc3cc4c(cc32)OCO4)c2ccccc21)C1CC1` (centres unmarked) [Example 4.78, tert-butyl [1-cyclopropyl-3-(2′-oxospiro[furo[2,3-f][1,3]benzodioxole-7,3′-indol]-1′(2′H)-yl)propyl]carbamate], the IC50 with sodium channel was in the range of 0.001 to 0.1 µM. Moreover, the inhibition at 10 µM on CYP3A4 is more than 50%.

Take `O=C1N(Cc2ccc(C(F)(F)F)o2)c2cccc(Cl)c2C12COc1cc3c(cc12)OCO3` (centres unmarked) [Example 4.90, 4′-chloro-1′-{[5-(trifluoromethyl)-2-furyl]methyl}spiro[furo[2,3-f][1,3]benzodioxole-7,3′-indol]-2′(1′H)-one]: the IC50 with sodium channel lay within 0.001 to 0.1 µM. Moreover, the inhibition at 10 µM at CYP3A4 is more than 50%.

For the compound `O=C1N(Cc2ccc(C(F)(F)F)nc2)c2ccccc2C12COc1cc3c(cc12)OCCO3` (centres unmarked) [Example 4.98, 1-{[6-(trifluoromethyl)pyridin-3-yl]methyl}-2,3-dihydrospiro[furo[2,3-g][1,4]benzodioxine-8,3′-indol]-2′(1′H)-one], the IC50 in the data set with sodium channel lay within 0.001 to 0.1 µM. Besides, at CYP3A4, the inhibition at 10 µM was more than 50%.

With `CCC(=O)CN1C(=O)[C@@]2(COc3cc4c(cc32)OCCO4)c2ccccc21` [Example 4.109, (S)-1′-(2-oxobutyl)-3,7-dihydro-2H-spiro[benzofuro[5,6-b][1,4]dioxine-8,3′-indolin]-2′-one], in the data set on sodium channel, the IC50 was 0.001 to 0.1 µM. Further, the inhibition at 10 µM on CYP3A4 is less than 50%.

Take `N#Cc1ccc2c(c1)OCC21C(=O)N(Cc2ccc3c(c2)OCCO3)c2ccccc21` (centres unmarked) [Example 4.111, 1′-(2,3-dihydro-1,4-benzodioxin-6-ylmethyl)-2′-oxo-1′,2′-dihydrospiro[1-benzofuran-3,3′-indole]-6-carbonitrile]: the IC50 in the data set on sodium channel was 0.1 to 1 µM. Further, the inhibition at 10 µM at CYP3A4 is less than 50%.

`O=C1N(Cc2ncccc2Cl)c2ccccc2C12COc1cc3c(cc12)OCCO3` (centres unmarked) [Example 4.112, 1-[(3-chloropyridin-2-yl)methyl]-2,3-dihydrospiro[furo[2,3-g][1,4]benzodioxine-8,3′-indol]-2′(1′H)-one]: in the data set with sodium channel, the half-maximal inhibitory concentration (IC50) was in the range of 0.001 to 0.1 µM. In addition, the inhibition at 10 µM on CYP3A4 was more than 50%.

As for `O=C1N(Cc2ncccc2C(F)(F)F)c2cccc(F)c2C12COc1cc3c(cc12)OCCO3` (centres unmarked) [Example 5.20, 4′-fluoro-1′-{[3-(trifluoromethyl)pyridin-2-yl]methyl}-2,3-dihydrospiro[furo[2,3-g][1,4]benzodioxine-8,3′-indol]-2′(1′H)-one], in the data set on sodium channel, the IC50 was 0.001 to 0.1 µM. Besides, the inhibition at 10 µM at CYP3A4 was less than 50%.
